Experimental data: US6867207B2, “IL-5 inhibiting 6-azauracil derivatives” (Janssen Pharmaceutica N.V., priority 1997, dated 2005)

These compounds were tested on IL-5 production (assay: In vitro inhibition of IL-5 production in human blood (phytohemagglutinin-stimulated whole blood, ELISA)). Conditions: test dose 1×10^−6 M, 48 hours.
Assay type: cell-based
How it was run: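 Percent inhibition of IL-5, quantified by ELISA in cell-free supernatants, is given at a single dose of 1×10^−6 M (or 1×10^−5 M). Threefold-diluted human whole blood from healthy men received compound for 60 min at 37° C before 48 h PHA stimulation at 2 μg/mL.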
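Note: values marked with an asterisk were tested at 10 µM and unmarked values at 1 µM.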

| SMILES | % inh. (percentage inhibition of IL-5 production) [%] |
| --- | --- |
| Cc1nc(-c2ccccc2Cl)sc1C(c1ccc(Cl)cc1)c1c(Cl)cc(-n2ncc(=O)[nH]c2=O)cc1Cl (racemic) [Compound 137] | 64 |
| O=c1cnn(-c2cc(Cl)c(C(Sc3nc(-c4ccccc4)cs3)c3ccc(Cl)cc3)c(Cl)c2)c(=O)[nH]1 (stereo not drawn) [Compound 380] | 95 |
| Cn1c(-c2ccccc2)nnc1C(c1ccc(Cl)cc1)c1c(Cl)cc(-n2ncc(=O)[nH]c2=O)cc1Cl.O (stereo not drawn) [Comp 428] | 66 |
| N#CCc1nnc(C(c2ccc(Cl)cc2)c2c(Cl)cc(-n3ncc(=O)[nH]c3=O)cc2Cl)o1 (racemic) [Compound 179] | 21 |
| CNC(=O)Cc1sc(C(c2ccc(Cl)cc2)c2c(Cl)cc(-n3ncc(=O)[nH]c3=O)cc2Cl)nc1-c1ccccc1 (racemic) [Comp 301] | 33 |
| COCCNCc1sc(C(c2ccc(Cl)cc2)c2c(Cl)cc(-n3ncc(=O)[nH]c3=O)cc2Cl)nc1-c1ccccc1 (racemic) [Comp 316] | 85 |
| Nc1ccc2nc(SC(c3ccc(Cl)c(C(F)(F)F)c3)c3c(Cl)cc(-n4ncc(=O)[nH]c4=O)cc3Cl)sc2c1 (stereo not drawn) [Compound 389] | 91 |
| O=c1cnn(-c2cc(Cl)c(C(c3ccc(Cl)cc3)c3nc(-c4ccccc4Cl)cs3)c(Cl)c2)c(=O)[nH]1 (racemic) [Comp 32] | 90 |
| O=c1cnn(-c2cc(Cl)c(C(c3ccc(Cl)cc3)c3nnc(-c4cccc(O)c4)o3)c(Cl)c2)c(=O)[nH]1 (racemic) [Compound 200] | 43 |
| O=c1cnn(-c2cc(Cl)c(C(Sc3nc(-c4ccccc4)cs3)c3ccc(Cl)c(C(F)(F)F)c3)c(Cl)c2)c(=O)[nH]1 (stereo not drawn) [Compound 381] | 95 |
| O=c1cnn(-c2cc(Cl)c(C(c3ccc(Cl)cc3)c3nnc(-c4ccccc4)o3)c(Cl)c2)c(=O)[nH]1 (stereo not drawn) [Compound 190, (B)-2-[3,5-dichloro-4-[(4-chlorophenyl)(5-phenyl-1,3,4-oxadizol-2-yl)methyl]phenyl]-1,2,4-triazine-3,5(2H,4H)-dione] | 83 |
| CN(C)c1ccc(-c2nnc(C(c3ccc(Cl)cc3)c3c(Cl)cc(-n4ncc(=O)[nH]c4=O)cc3Cl)o2)cc1 (racemic) [Compound 180] | 54 |
| Cc1sc(C(C)(c2ccc(Cl)c(Cl)c2)c2c(Cl)cc(-n3ncc(=O)[nH]c3=O)cc2Cl)nc1-c1ccccc1 (racemic) [Comp 233] | 84 |
| O=c1cnn(-c2cc(Cl)c(C(c3ccc(Cl)cc3)c3nc(Cc4ccccc4)cs3)c(Cl)c2)c(=O)[nH]1 (racemic) [Comp 225] | 80 |
| CN(C)Cc1sc(C(c2ccc(Cl)cc2)c2c(Cl)cc(-n3ncc(=O)[nH]c3=O)cc2Cl)nc1-c1ccccc1 (racemic) [Comp 253] | 96 |
| O=c1cnn(-c2cc(Cl)c(C(Sc3ncccn3)c3ccc(Cl)cc3)c(Cl)c2)c(=O)[nH]1 (single isomer, unassigned) [Compound 346] | 86 |
| CS(=O)(=O)c1cccc(-c2nnc(C(c3ccc(Cl)cc3)c3c(Cl)cc(-n4ncc(=O)[nH]c4=O)cc3Cl)o2)c1 (racemic) [Compound 205] | 80 |

| SMILES | % inh. (percentage inhibition of IL-5 production) [%] |
| --- | --- |
| Cc1oc(C(c2ccc(Cl)cc2)c2c(Cl)cc(-n3ncc(=O)[nH]c3=O)cc2Cl)nc1-c1ccc(F)cc1 (stereo not drawn) [Comp 431] | 67 |
| Cc1nc(C(c2ccc(Cl)cc2)c2ccc(-n3ncc(=O)[nH]c3=O)cc2Cl)c(-c2ccccc2)s1 (racemic) [Compound 369] | 66 |
| CC(c1ccc(Cl)c(C(F)(F)F)c1)(c1nnc(-c2ccccc2)o1)c1ccc(-n2ncc(=O)[nH]c2=O)cc1Cl (racemic) [Compound 155] | 80 |
| COc1ccc(Br)c(-c2csc(C(c3ccc(Cl)cc3)c3c(Cl)cc(-n4ncc(=O)[nH]c4=O)cc3Cl)n2)c1 (racemic) [Comp 25] | 88 |
| Cn1cc(-c2ccccc2)nc1C(c1ccc(Cl)cc1)c1c(Cl)cc(-n2ncc(=O)[nH]c2=O)cc1Cl (stereo not drawn) [Comp 425] | 70 |
| O=C(Cc1sc(C(c2ccc(Cl)cc2)c2c(Cl)cc(-n3ncc(=O)[nH]c3=O)cc2Cl)nc1-c1ccccc1)N1CCOCC1 (racemic) [Comp 276] | 91 |
| O=c1cnn(-c2cc(Cl)c(C(c3ccc(Cl)cc3)c3nc(-c4ccccc4)c(CN4CCOCC4)s3)c(Cl)c2)c(=O)[nH]1 (racemic) [Comp 292] | 94 |
| O=c1cnn(-c2cc(Cl)c(C(c3ccc(Cl)cc3)c3nnc(-c4cccnc4)o3)c(Cl)c2)c(=O)[nH]1 (racemic) [Compound 201] | 87 |
| Cc1nc(-c2ccccc2Cl)c(C(c2ccc(Cl)cc2)c2c(Cl)cc(-n3ncc(=O)[nH]c3=O)cc2Cl)s1 (racemic) [Compound 135] | 88 |
| Cc1nc(C(c2ccc(Cl)cc2)c2c(Cl)cc(-n3ncc(=O)[nH]c3=O)cc2Cl)sc1C (racemic) [Comp 16] | 89 |
| CCOC(=O)CSC(c1ccc(Cl)cc1)c1ccc(-n2ncc(=O)[nH]c2=O)cc1Cl (racemic) [Compound 76] | 2 |
| CN(C)c1ccnc(SC(c2ccc(Cl)cc2)c2c(Cl)cc(-n3ncc(=O)[nH]c3=O)cc2Cl)n1 (racemic) [Compound 355] | 83 |
| Cn1ccnc1C(c1ccc(Cl)cc1)c1c(Cl)cc(-n2ncc(=O)[nH]c2=O)cc1Cl (racemic) [Comp 109] | 35 |
| CS(=O)(=O)O.O.O.O=c1cnn(-c2cc(Cl)c(C(Sc3nccc(N4CCOCC4)n3)c3ccc(Cl)cc3)c(Cl)c2)c(=O)[nH]1 (racemic) [Compound 344] | 82 |
| O=c1cnn(-c2ccc(C(O)(c3ccc(Cl)cc3)c3nc4ccccc4s3)c(Cl)c2)c(=O)[nH]1 (stereo not drawn) [Comp 111] | 61 |
| CC(c1ccc(Cl)cc1)(c1nc(-c2ccccc2)no1)c1ccc(-n2ncc(=O)[nH]c2=O)cc1Cl (racemic) [Comp 106] | 77 |

Same assay, conditions: test dose 1×10^−6 M, 48 hours, read-out: % inh. (percentage inhibition of IL-5 production)

| SMILES | inhibition at 1 µM [%] |
| --- | --- |
| NC(c1ccc(Cl)cc1)(c1nccs1)c1ccc(-n2ncc(=O)[nH]c2=O)cc1Cl (racemic) [Compound 35, (±)-2-[3-chloro-4-[amino-(4-chlorophenyl)-2-thiazolylmethyl]phenyl]-1,2,4-triazine-3,5(2H,4H)-dione] | 56 |
| O=c1cnn(-c2cc(Cl)c(C(Sc3nccc(N4CCNCC4)n3)c3ccc(Cl)cc3)c(Cl)c2)c(=O)[nH]1 (racemic) [Compound 360, (±)-2-[3,5-dichloro-4-[(4-chlorophenyl)[[4-(1-piperazinyl)-2-pyrimidinyl]thio]methyl]phenyl]-1,2,4-triazine-3,5(2H,4H)-dione monohydrate] | 84 |
| O=c1cnn(-c2cc(Cl)c(C(CO)c3ccc(Cl)cc3)c(Cl)c2)c(=O)[nH]1 (racemic) [Compound 420, (±)-2-[3,5-dichloro-4-[1-(4-chlorophenyl)-2-hydroxyethyl]phenyl]-1,2,4-triazine-3,5(2H,4H)-dione] | 33 |
